# How the values were obtained:
# [1] = biological target: Human immunodeficiency virus type 1 reverse transcriptase (Human immunodeficiency virus 1, UniProt Q72547); experiment: Inhibition of recombinant wild-type p66/p51 HIV-1 reverse transcriptase incubated for 40 mins by picogreen dye-based spectrofluorometric analysis
# [2] = Apparent volume of distribution in Sprague-Dawley rat at 10 mg/kg,po measured upto 24 hrs by LC-MS/MS analysis; type: ADME, organism-based; conditions: in vivo
# [3] = Cytotoxicity against human MT4 cells assessed as cell growth inhibition incubated for 5 days by MTT assay; type: toxicity, cell-based; conditions: time 5 day
# [4] = Half life in Sprague-Dawley rat at 1 mg/kg,iv measured upto 24 hrs by LC-MS/MS analysis; type: ADME, organism-based; conditions: in vivo
# [5] = Half life in Sprague-Dawley rat at 10 mg/kg,po measured upto 24 hrs by LC-MS/MS analysis; type: ADME, organism-based; conditions: in vivo
# [6] = Oral bioavailability in Sprague-Dawley rat at 10 mg/kg measured upto 24 hrs by LC-MS/MS analysis; type: ADME, organism-based; conditions: in vivo
# [7] = Tmax in Sprague-Dawley rat at 1 mg/kg,iv measured upto 24 hrs by LC-MS/MS analysis; type: ADME, organism-based; conditions: in vivo
# [8] = Acute toxicity in healthy mouse assessed as heart damage at 1 g/Kg,IG monitored for 2 weeks by HE staining based assay; type: tissue-based; conditions: in vivo, po, 1000 mg/kg, 336 h
# [9] = Acute toxicity in healthy mouse assessed as liver damage at 1 g/Kg,IG monitored for 2 weeks by HE staining based assay; type: tissue-based; conditions: in vivo, po, 1000 mg/kg, 336 h
# [10] = AUC (0 to infinity) in Sprague-Dawley rat at 1 mg/kg,iv measured upto 24 hrs by LC-MS/MS analysis; type: ADME, organism-based; set-up: dose 1 mg/kg, time < 24 hrs, route iv; conditions: in vivo
# [11] = Cmax in Sprague-Dawley rat at 1 mg/kg,iv measured upto 24 hrs by LC-MS/MS analysis; type: ADME, organism-based; set-up: dose 1 mg/kg, time < 24 hrs, route iv; conditions: in vivo
# hERG = hERG (Homo sapiens, UniProt Q12809); experiment: Inhibition of human ERG expressed in CHO cells at 40 uM at -80 mV holding potential by automated patch clamp method relative to control; type: toxicity, cell-based; conditions: CHO cells that express hERG
# Sequence of hERG (Q12809 whole entry): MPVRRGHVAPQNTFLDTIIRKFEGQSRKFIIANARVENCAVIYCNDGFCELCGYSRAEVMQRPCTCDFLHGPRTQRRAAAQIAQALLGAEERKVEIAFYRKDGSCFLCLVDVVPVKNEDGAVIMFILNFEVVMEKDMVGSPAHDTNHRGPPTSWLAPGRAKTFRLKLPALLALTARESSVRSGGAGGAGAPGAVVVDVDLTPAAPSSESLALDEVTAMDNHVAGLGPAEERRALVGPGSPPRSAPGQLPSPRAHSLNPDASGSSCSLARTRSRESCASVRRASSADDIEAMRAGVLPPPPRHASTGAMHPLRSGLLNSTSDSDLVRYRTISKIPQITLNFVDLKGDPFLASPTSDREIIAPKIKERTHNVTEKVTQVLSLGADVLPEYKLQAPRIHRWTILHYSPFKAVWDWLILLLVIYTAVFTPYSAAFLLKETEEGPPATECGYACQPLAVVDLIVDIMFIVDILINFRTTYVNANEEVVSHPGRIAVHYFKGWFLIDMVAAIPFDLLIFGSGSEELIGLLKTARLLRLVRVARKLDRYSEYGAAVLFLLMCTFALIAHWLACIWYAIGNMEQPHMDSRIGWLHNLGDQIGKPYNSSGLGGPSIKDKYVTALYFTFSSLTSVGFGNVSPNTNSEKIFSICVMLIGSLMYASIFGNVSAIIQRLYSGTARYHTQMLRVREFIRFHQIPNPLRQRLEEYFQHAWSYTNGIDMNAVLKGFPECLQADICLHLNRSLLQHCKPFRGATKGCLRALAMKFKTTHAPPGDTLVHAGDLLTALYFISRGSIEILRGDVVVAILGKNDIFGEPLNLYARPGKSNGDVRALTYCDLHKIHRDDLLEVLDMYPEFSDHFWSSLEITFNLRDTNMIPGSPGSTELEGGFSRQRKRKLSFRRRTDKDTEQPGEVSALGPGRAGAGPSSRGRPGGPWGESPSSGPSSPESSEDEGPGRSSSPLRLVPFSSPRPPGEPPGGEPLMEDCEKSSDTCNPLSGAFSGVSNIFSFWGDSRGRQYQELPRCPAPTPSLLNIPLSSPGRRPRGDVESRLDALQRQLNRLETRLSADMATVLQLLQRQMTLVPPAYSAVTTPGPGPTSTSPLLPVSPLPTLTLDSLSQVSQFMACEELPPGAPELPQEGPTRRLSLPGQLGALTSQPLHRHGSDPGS
# Cytochrome P450 2D6 = Cytochrome P450 2D6 (Homo sapiens, UniProt P10635); experiment: Inhibition of CYP2D6 in human liver microsomes using dextromethorphan as substrate incubated for 15 to 40 mins in presence of NADPH; type: ADME, Microsome
# Sequence of Cytochrome P450 2D6 (P10635 whole entry): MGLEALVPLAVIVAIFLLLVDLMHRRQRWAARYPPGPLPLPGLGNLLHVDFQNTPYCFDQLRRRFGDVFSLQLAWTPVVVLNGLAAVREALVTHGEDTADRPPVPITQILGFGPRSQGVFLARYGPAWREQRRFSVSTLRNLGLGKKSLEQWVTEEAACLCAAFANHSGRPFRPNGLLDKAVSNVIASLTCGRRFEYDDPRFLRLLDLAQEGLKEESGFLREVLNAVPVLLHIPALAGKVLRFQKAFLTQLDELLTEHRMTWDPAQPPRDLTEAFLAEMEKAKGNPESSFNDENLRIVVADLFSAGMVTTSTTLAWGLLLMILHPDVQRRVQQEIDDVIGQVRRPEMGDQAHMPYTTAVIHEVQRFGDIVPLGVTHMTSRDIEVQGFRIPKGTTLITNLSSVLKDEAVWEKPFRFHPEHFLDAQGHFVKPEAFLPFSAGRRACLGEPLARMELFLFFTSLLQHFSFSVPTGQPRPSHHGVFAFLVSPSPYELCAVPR
# [12] = AUC (0 to t) in Sprague-Dawley rat at 1 mg/kg,iv measured upto 24 hrs by LC-MS/MS analysis; type: ADME, organism-based; set-up: dose 1 mg/kg, time < 24 hrs, route iv; conditions: in vivo
# [13] = test system: Human immunodeficiency virus 1; experiment: Antiviral activity against drug-resistant HIV-1 E138K mutant infected in human MT4 cells assessed as reduction in virus-induced cytopathic effect incubated for 5 days by MTT assay; type: functional, organism-based; conditions: Human immunodeficiency virus 1, E138K mutant, MT4, 120 h
# Cytochrome P450 3A4 = Cytochrome P450 3A4 (Homo sapiens, UniProt P08684); experiment: Inhibition of CYP3A4T in human liver microsomes using testosterone as substrate incubated for 15 to 40 mins in presence of NADPH; type: ADME, Microsome
# Sequence of Cytochrome P450 3A4 (P08684 whole entry): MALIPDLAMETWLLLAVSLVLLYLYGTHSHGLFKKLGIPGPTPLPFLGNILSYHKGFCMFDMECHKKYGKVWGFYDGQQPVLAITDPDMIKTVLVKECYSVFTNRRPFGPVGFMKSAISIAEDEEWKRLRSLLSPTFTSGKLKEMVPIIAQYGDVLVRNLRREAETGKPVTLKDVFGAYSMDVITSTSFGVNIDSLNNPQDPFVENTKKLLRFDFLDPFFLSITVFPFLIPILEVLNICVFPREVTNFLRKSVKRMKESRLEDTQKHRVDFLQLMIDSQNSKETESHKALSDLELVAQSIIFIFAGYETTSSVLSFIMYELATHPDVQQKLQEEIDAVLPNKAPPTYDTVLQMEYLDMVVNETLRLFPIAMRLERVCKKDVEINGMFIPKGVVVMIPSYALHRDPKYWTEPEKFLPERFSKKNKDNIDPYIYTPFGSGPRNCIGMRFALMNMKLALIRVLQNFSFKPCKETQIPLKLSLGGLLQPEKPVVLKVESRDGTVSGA
# [14] = AUC (0 to t) in Sprague-Dawley rat at 10 mg/kg,po measured upto 24 hrs by LC-MS/MS analysis; type: ADME, organism-based; set-up: dose 10 mg/kg, time < 24 hrs, route po; conditions: in vivo
# [15] = Fold resistance, ratio of EC50 for antiviral activity against drug-resistant HIV-1 L100I mutant infected in human MT4 cells to EC50 for antiviral activity against […] HIV-1 infected in human MT4 cells; type: functional
# [16] = Acute toxicity in mouse assessed as behavioral abnormalities at 1 g/Kg,IG monitored for 2 weeks; conditions: in vivo, po, 1000 mg/kg, 336 h
# [17] = AUC (0 to infinity) in Sprague-Dawley rat at 10 mg/kg,po measured upto 24 hrs by LC-MS/MS analysis; type: ADME, organism-based; set-up: dose 10 mg/kg, time < 24 hrs, route po; conditions: in vivo
# [18] = Fold resistance, ratio of EC50 for antiviral activity against drug-resistant HIV-1 Y181C mutant infected in human MT4 cells to EC50 for antiviral activity against […] HIV-1 infected in human MT4 cells; type: functional
# [19] = MRT(0 to t) in Sprague-Dawley rat at 10 mg/kg,po measured upto 24 hrs by LC-MS/MS analysis; type: ADME, organism-based; conditions: in vivo
# [20] = Acute toxicity in healthy mouse assessed as spleen damage at 1 g/Kg,IG monitored for 2 weeks by HE staining based assay; type: tissue-based; conditions: in vivo, po, 1000 mg/kg, 336 h
# Cytochrome P450 1A2 = biological target: T1, Cytochrome P450 1A2 (Homo sapiens, UniProt P05177); experiment: Inhibition of CYP1A2 in human liver microsomes using phenacetin as substrate incubated for 15 to 40 mins in presence of NADPH; type: ADME, Microsome
# T1 sequence (P05177 whole entry): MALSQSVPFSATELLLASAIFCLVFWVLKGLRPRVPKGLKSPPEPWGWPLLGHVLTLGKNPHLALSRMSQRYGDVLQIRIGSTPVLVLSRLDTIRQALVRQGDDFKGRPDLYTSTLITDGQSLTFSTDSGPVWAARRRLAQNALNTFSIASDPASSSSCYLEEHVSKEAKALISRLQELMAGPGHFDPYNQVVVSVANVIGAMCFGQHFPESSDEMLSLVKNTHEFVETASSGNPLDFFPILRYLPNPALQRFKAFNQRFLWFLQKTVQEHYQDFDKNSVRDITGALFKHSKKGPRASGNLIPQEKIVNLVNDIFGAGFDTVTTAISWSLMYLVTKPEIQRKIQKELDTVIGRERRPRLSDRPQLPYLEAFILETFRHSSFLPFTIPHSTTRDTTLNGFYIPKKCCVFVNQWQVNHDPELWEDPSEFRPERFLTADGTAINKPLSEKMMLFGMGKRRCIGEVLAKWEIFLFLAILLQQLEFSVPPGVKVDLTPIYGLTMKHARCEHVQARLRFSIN
# [21] = test system: Human immunodeficiency virus 1; experiment: Antiviral activity against drug-resistant HIV-1 L100I mutant infected in human MT4 cells assessed as reduction in virus-induced cytopathic effect incubated for 5 days by MTT assay; type: functional, organism-based; conditions: Human immunodeficiency virus 1, L100I mutant, MT4, 120 h
# [22] = Acute toxicity in mouse assessed as mouse death at 1 g/Kg,IG monitored for 2 weeks; conditions: in vivo, po, 1000 mg/kg, 336 h
# [23] = Selectivity index, ratio of CC50 for human MT4 cells to EC50 for antiviral activity against NNRTI resistant HIV-1 infected in human MT4 cells; type: toxicity, cell-based; conditions: read-out: Ratio CC50/EC50
# Cytochrome P450 2C9 = Cytochrome P450 2C9 (Homo sapiens, UniProt P11712); experiment: Inhibition of CYP2C9 in human liver microsomes using […] as substrate incubated for 15 to 40 mins in presence of NADPH; type: ADME, Microsome
# Sequence of Cytochrome P450 2C9 (P11712 whole entry): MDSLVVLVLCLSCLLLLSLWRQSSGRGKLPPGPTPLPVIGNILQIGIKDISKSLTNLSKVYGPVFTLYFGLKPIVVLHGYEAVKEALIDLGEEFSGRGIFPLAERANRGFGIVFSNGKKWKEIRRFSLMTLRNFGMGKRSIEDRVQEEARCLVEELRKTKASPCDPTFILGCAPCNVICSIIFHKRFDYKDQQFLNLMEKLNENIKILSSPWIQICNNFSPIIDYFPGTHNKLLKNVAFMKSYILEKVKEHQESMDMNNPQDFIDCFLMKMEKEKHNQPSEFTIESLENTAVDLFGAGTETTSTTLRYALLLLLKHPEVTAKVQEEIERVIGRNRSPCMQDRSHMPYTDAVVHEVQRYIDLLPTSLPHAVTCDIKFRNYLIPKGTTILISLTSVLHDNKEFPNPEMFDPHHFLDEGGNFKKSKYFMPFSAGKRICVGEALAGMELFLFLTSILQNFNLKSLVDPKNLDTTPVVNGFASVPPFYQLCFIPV
# [24] = test system: Human immunodeficiency virus 1; experiment: Antiviral activity against […] HIV-1 infected in human MT4 cells assessed as reduction in virus-induced cytopathic effect incubated for 5 days by MTT assay; type: functional, organism-based; conditions: Human immunodeficiency virus 1, MT4, 120 h
# [25] = Acute toxicity in healthy mouse assessed as kidney damage at 1 g/Kg,IG monitored for 2 weeks by HE staining based assay; type: tissue-based; conditions: in vivo, po, 1000 mg/kg, 336 h
# [26] = MRT (0 to infinity) in Sprague-Dawley rat at 1 mg/kg,iv measured upto 24 hrs by LC-MS/MS analysis; type: ADME, organism-based; conditions: in vivo
# [27] = test system: Human immunodeficiency virus 1; experiment: Antiviral activity against drug-resistant HIV-1 Y181C mutant infected in human MT4 cells assessed as reduction in virus-induced cytopathic effect incubated for 5 days by MTT assay; type: functional, organism-based; conditions: Human immunodeficiency virus 1, Y181C mutant, MT4, 120 h
smiles,measurement,setting,value
Cc1c(C(C#N)c2c(F)cccc2F)nc(SC(C)C)[nH]c1=O (configuration not stated),IC50,[1],0.079 µM
same,Vz,[2],0.47537 L/kg
same,CC50 at 120 h,[3],137 µM
same,half-life,[4],4.07 h
same,half-life,[5],4.39 h
same,F,[6],164%
same,Tmax,[7],4.8 min
same,Activity,[8],Non-Toxic
same,Activity,[9],Non-Toxic
same,AUC(0-inf),[10],8320 ng·h/mL
same,Cmax,[11],7620 ng/mL
same,inhibition at 40 µM,hERG,29.4%
same,IC50,Cytochrome P450 2D6,> 50 µM
same,AUC(0-t) at 24 h,[12],8280 ng·h/mL
same,EC50,[13],0.05 µM
same,IC50,Cytochrome P450 3A4,> 50 µM
same,AUC(0-t) at 24 h,[14],133000 ng·h/mL
same,Ratio EC50,[15],50
same,Activity,[16],Non-Toxic
same,AUC(0-inf),[17],136000 ng·h/mL
same,Ratio EC50,[18],36
same,MRT last at 24 h,[19],6.2 h
same,Activity,[20],Non-Toxic
same,IC50,Cytochrome P450 1A2,> 50 µM
same,EC50,[21],1.03 µM
same,Activity,[22],Non-Toxic
same,selectivity ratio,[23],6560
same,IC50,Cytochrome P450 2C9,40.4 µM
same,EC50,[24],0.0208 µM
same,Activity,[25],Non-Toxic
same,MRT inf,[26],2.41 h
same,EC50,[27],0.75 µM
